Measurements from ChEMBL document CHEMBL3882736, “Modulation microtubules diseases; antiproliferative agents; antiinflamamtory agents” (2011).

How the values were obtained:
[1] = Cytotoxicity against human DU145 cells assessed as growth inhibition at 20 uM after 40 hrs by MTT assay relative to control; type: functional; details: DU-145, 40 h, read-out: GI
Procedure, shortened: (§1)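 Human tumour cells in late log phase were grown in their own media containing 10% FBS and dispensed at 90 µL per well (1.1× final, 50000 to 200,000 cell/mL) onto 10 µL of compound (10× final) in 96-well plates, taken from screening plates prepared at 20 µM. After 40 hr at 37° C. in 5% CO2, MTT was added for 6 hours, the cells were lysed overnight with SDS/HCl, and plates were read at 590 nm. Growth inhibition is expressed relative to control.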

[2] = biological target: Tyrosine-protein kinase JAK2 (Homo sapiens) (UniProt O60674); assay: Inhibition of TEL-fused JAK2 kinase domain (2994 to 3914 nucleotide) (unknown origin) expressed in mouse BaF3 cells assessed as decrease in cell growth at 20 uM after 40 hrs by MTT assay relative to control; type: cell-based
[3] = biological target: T1, Tyrosine-protein kinase JAK3 (Homo sapiens) (UniProt P52333); assay: Inhibition of TEL-fused JAK3 kinase domain (2520 to 3469 nucleotide) (unknown origin) expressed in mouse BaF3 cells assessed as decrease in cell growth at 20 uM after 40 hrs by MTT assay relative to control; type: cell-based
T1 sequence (whole entry): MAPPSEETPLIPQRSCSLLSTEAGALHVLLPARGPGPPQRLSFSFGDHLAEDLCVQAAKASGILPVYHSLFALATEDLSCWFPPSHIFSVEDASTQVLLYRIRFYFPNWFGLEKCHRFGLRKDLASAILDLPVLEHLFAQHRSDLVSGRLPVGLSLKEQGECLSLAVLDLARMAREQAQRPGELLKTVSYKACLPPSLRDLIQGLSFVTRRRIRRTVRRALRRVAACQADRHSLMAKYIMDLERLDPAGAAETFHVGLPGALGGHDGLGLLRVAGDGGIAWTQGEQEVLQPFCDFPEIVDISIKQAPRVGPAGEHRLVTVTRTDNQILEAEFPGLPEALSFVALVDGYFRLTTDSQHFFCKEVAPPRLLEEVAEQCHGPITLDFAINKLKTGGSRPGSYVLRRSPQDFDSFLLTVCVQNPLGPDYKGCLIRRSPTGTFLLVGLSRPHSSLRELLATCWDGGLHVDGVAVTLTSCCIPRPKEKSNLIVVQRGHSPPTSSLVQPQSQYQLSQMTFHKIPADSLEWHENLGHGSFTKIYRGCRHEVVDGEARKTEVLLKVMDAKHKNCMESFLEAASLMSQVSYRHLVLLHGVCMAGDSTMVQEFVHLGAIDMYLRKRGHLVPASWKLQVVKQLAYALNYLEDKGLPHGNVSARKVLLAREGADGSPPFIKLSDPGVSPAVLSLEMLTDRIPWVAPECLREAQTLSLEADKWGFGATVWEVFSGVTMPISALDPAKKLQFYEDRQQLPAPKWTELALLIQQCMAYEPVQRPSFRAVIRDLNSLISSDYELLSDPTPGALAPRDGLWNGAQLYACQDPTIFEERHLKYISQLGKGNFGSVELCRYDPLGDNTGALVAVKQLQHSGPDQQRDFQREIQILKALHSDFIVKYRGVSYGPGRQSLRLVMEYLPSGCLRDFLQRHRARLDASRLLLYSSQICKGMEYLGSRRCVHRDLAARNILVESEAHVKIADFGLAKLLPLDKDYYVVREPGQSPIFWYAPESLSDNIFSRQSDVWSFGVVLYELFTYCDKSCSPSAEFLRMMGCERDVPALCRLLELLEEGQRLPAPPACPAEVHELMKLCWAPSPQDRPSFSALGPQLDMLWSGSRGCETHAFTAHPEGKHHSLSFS

Tubulin (Homo sapiens) = Tubulin (Homo sapiens) (UniProt P68371+Q9H4B7+P0DPH7+P68366+Q13509+Q71U36+P04350+Q3ZCM7+P07437+P68363+Q9BQE3+Q6PEY2+Q13885+Q9BVA1+Q9BUF5); assay: Inhibition of tubulin (unknown origin) polymerization at 50 uM by turbidometric method relative to control; type: protein-complex assay
Procedure, shortened: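 Microtubule protein of unstated origin was incubated with compound at 0° C. Polymerisation was started with 1 mM GTP and heating to 37° C. in cuvettes, and absorbance at 340 nm was followed over time in a thermostatically controlled spectrophotometer. Inhibition of polymerisation is expressed as percent relative to control.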

[4] = Cytotoxicity against human PC3 cells assessed as growth inhibition at 20 uM after 40 hrs by MTT assay relative to control; type: functional; details: PC-3, 40 h, read-out: GI; procedure, shortened: as §1
[5] = Cytotoxicity against human K562 cells assessed as growth inhibition at 20 uM after 40 hrs by MTT assay relative to control; type: functional; details: K562, 40 h, read-out: GI; procedure, shortened: as §1

Sequence of Tyrosine-protein kinase JAK2 (Homo sapiens) (O60674 whole entry, the tested form may be a part): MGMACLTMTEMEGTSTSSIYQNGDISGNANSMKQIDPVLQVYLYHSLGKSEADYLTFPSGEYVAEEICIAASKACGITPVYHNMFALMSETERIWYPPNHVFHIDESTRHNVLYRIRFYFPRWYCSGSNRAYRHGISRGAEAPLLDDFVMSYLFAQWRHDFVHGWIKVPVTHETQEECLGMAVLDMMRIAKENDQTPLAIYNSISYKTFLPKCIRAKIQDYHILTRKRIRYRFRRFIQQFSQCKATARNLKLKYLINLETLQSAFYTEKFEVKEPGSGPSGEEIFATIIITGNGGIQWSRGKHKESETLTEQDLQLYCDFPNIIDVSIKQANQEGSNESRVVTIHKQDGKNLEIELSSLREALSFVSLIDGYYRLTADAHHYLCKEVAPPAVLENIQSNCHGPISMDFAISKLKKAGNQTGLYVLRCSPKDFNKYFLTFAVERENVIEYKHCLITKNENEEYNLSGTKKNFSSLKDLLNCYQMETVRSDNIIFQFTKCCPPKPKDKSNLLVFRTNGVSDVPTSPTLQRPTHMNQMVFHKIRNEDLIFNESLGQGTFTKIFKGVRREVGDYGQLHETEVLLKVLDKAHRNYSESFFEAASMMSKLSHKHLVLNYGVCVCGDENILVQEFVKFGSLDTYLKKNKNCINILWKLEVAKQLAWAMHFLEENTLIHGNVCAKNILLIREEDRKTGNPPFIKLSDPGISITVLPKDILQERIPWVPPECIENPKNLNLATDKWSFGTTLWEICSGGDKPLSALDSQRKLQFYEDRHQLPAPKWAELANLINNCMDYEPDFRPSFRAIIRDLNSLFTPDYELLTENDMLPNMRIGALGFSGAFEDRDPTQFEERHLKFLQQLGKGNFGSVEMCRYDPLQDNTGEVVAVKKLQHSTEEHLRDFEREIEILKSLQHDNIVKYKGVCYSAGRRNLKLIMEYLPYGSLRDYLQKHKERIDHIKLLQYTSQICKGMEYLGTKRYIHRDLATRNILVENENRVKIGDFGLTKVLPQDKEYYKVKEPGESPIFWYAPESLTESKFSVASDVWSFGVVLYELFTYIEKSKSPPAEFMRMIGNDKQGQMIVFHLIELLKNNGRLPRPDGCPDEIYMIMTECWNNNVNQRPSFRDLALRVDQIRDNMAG

| Structure (SMILES) | inhibition [2] [%] | inhibition [3] [%] | inhibition (Tubulin (Homo sapiens)) [%] | inhibition of growth at 20 µM [1] [%] | inhibition of growth at 20 µM [4] [%] | inhibition of growth at 20 µM [5] [%] |
| --- | --- | --- | --- | --- | --- | --- |
| CCCC(Nc1cncc(-c2ccc(NC(=O)NCC)c(OC)c2)n1)c1cccc(F)c1 (centres undefined) |  |  | > 50 |  | > 50 |  |
| CCCC(Nc1nc(-c2ccc(NC(=O)NCC)c(OC)c2)cnc1C)c1ccccc1 (centres undefined) |  |  | > 50 |  | > 50 |  |
| CCCC(Nc1cncc(-c2ccc(CN3CCCC3)cc2)n1)c1ccccc1 (centres undefined) |  |  | > 50 |  | > 50 |  |
| CCC[C@H](Nc1cncc(-c2ccc(NC(=O)NC)c(OC)c2)n1)c1ccccn1 | > 50 | > 50 | > 50 | > 50 | > 50 | > 50 |
| CCCC(Nc1cncc(-c2ccc(OCCCN3CCCC3)c(OC)c2)n1)c1ccccc1 (centres undefined) |  |  | > 50 |  | > 50 |  |
| CCCC(Nc1cncc(-c2ccc(NC(=O)NCC)c(C)c2)n1)c1ccccn1 (centres undefined) |  |  | > 50 |  | > 50 |  |
| CCCC(Nc1cncc(-c2ccc(OCCCCO)c(OC)c2)n1)c1ccccc1 (centres undefined) |  |  | > 50 |  | > 50 |  |
| CCCC(Nc1cncc(-c2ccc(OCCCCN)c(OC)c2)n1)c1ccccc1 (centres undefined) |  |  | > 50 |  | > 50 |  |
| CCC[C@H](Nc1cncc(-c2ccc(NC(=O)NCC)c(OC)c2)n1)c1ccccn1 |  |  | > 50 |  | > 50 |  |

Further lines, with some results ahead:

| inhibition [2] [%] | inhibition [3] [%] | inhibition (Tubulin (Homo sapiens)) [%] | Structure (SMILES) | inhibition of growth at 20 µM [1] [%] | inhibition of growth at 20 µM [4] [%] | inhibition of growth at 20 µM [5] [%] |
| --- | --- | --- | --- | --- | --- | --- |
| > 50 | > 50 | > 50 | COc1cc(-c2cncc(NC(C)c3cccc(NC(=O)c4ccncc4)c3)n2)ccc1O (centres undefined) | > 50 |  |  |
|  |  | > 50 | CCCC(Nc1cncc(-c2ccc(NC(=O)NCC)c(CC)c2)n1)c1cccnc1 (centres undefined) |  | > 50 |  |
|  |  | > 50 | CCCC(Nc1cncc(-c2ccc(NC(=O)NCC)c(C)c2)n1)c1cnccc1C (centres undefined) |  | > 50 |  |
|  |  | > 50 | CCCC(Nc1cncc(-c2ccc(CO)cc2)n1)c1ccccc1 (centres undefined) |  | > 50 |  |
|  |  | > 50 | CCCC(Nc1cncc(-c2cc(C)c(O)c(C)c2)c1)c1ccccc1 (centres undefined) |  | > 50 |  |
